Experimental findings from ChEMBL document CHEMBL4622877, “Aspeterreurone A, a Cytotoxic Dihydrobenzofuran-Phenyl Acrylate Hybrid from the Deep-Sea-Derived Fungus Aspergillus terreus CC-S06-18” (J Nat Prod, 2020) are described below.

As a reminder, the IC50 is the concentration that gives 50% inhibition.

The source made the active and inactive calls. The rule behind the calls is not given here.

Series [1] deals with MGC-803. Nature of the series: Induction of apoptosis in human MGC803 cells assessed as early apoptotic cells at 5 uM incubated for 48 hrs by Annexin V-FITC/propidium iodide staining-based flow cytometric analysis (reference value: 1.83%). It counts as functional.
Series [2] concerns MGC-803. The series can be described thus: Induction of apoptosis in human MGC803 cells assessed as necrotic cells at 20 uM incubated for 48 hrs by Annexin V-FITC/propidium iodide staining-based flow cytometric analysis (reference value: 0.18%). It counts as functional. For orientation: In flow cytometry, cells or beads pass a laser one at a time.
For series [3], the system named is MGC-803. Nature of the series: Induction of apoptosis in human MGC803 cells assessed as late apoptotic cells at 10 uM incubated for 48 hrs by Annexin V-FITC/propidium iodide staining-based flow cytometric analysis (reference value: 0.84%). It counts as functional.
The test system of series [4] is MGC-803. The series can be described thus: Induction of apoptosis in human MGC803 cells assessed as late apoptotic cells at 2 uM incubated for 48 hrs by Annexin V-FITC/propidium iodide staining-based flow cytometric analysis (reference value: 0.84%). It counts as functional.
The subject of series [5] is GES1. The series can be described thus: Cytotoxicity against human GES-1 cells after 72 hrs by CCK8 assay. It counts as cell-based. Conditions: GES1, 72 h. On the technique in general: Tetrazolium assays rely on reduction of a dye to a coloured formazan, in cell work by metabolically active cells.
The test system of series [6] is MGC-803. Nature of the series: Induction of apoptosis in human MGC803 cells assessed as viable cells at 2 uM incubated for 48 hrs by Annexin V-FITC/propidium iodide staining-based flow cytometric analysis (reference value: 97.15%). It counts as functional. Conditions: MGC-803, 48 h, read-out: Activity.
In series [7] the test system is MGC-803. The series can be described thus: Induction of apoptosis in human MGC803 cells assessed as viable cells at 10 uM incubated for 48 hrs by Annexin V-FITC/propidium iodide staining-based flow cytometric analysis (reference value: 97.15%). It counts as functional. Conditions: MGC-803, 48 h, read-out: Activity.
Series [8] relates to MGC-803. Nature of the series: Induction of apoptosis in human MGC803 cells assessed as late apoptotic cells at 5 uM incubated for 48 hrs by Annexin V-FITC/propidium iodide staining-based flow cytometric analysis (reference value: 0.84%). It counts as functional.
The test system of series [9] is MGC-803. Nature of the series: Induction of cell cycle arrest in human MGC803 cells assessed as accumulation of cells at G1 phase at 20 uM incubated for 24 hrs propidium iodide-A staining-based flow cytometric analysis (reference value: 52%). It counts as functional.
Series [10] concerns MGC-803. Nature of the series: Induction of apoptosis in human MGC803 cells assessed as necrotic cells at 10 uM incubated for 48 hrs by Annexin V-FITC/propidium iodide staining-based flow cytometric analysis (reference value: 0.18%). It counts as functional.
The test system of series [11] is MGC-803. The series can be described thus: Induction of apoptosis in human MGC803 cells assessed as viable cells at 20 uM incubated for 48 hrs by Annexin V-FITC/propidium iodide staining-based flow cytometric analysis (reference value: 97.15%). It counts as functional. Conditions: MGC-803, 48 h, read-out: Activity.
Series [12] has as its system MGC-803. The series can be described thus: Cytotoxicity against human MGC803 cells after 72 hrs by CCK8 assay. It counts as functional, cell-based. Conditions: for IC50: MGC-803, 72 h.
The test system of series [13] is MGC-803. Nature of the series: Induction of cell cycle arrest in human MGC803 cells assessed as accumulation of cells at S phase at 5 uM incubated for 24 hrs propidium iodide-A staining-based flow cytometric analysis (reference value: 17%). It counts as functional.
Series [14] has as its system MGC-803. The series can be described thus: Induction of apoptosis in human MGC803 cells assessed as early apoptotic cells at 10 uM incubated for 48 hrs by Annexin V-FITC/propidium iodide staining-based flow cytometric analysis (reference value: 1.83%). It counts as functional.
Series [15] has as its target Signal transducer and activator of transcription 3 (Homo sapiens) (UniProt P40763). The series can be described thus: Inhibition of STAT3 phosphorylation in human MGC803 cells at 2 to 20 uM incubated for 24 hrs by Western blot analysis. It counts as cell-based. Conditions: MGC-803.
Series [16] deals with MGC-803. Nature of the series: Induction of cell cycle arrest in human MGC803 cells assessed as accumulation of cells at S phase at 2 uM incubated for 24 hrs propidium iodide-A staining-based flow cytometric analysis (reference value: 17%). It counts as functional.
For series [17], the system named is MGC-803. The series can be described thus: Induction of cell cycle arrest in human MGC803 cells assessed as accumulation of cells at G2/M phase at 2 uM incubated for 24 hrs propidium iodide-A staining-based flow cytometric analysis (reference value: 31%). It counts as functional.
Series [18] relates to HGC-27. The series can be described thus: Cytotoxicity against human HGC27 cells after 72 hrs by CCK8 assay. It counts as functional, cell-based. The note with it: for IC50: HGC-27, 72 h.
The subject of series [19] is MGC-803. The series can be described thus: Induction of apoptosis in human MGC803 cells assessed as early apoptotic cells at 20 uM incubated for 48 hrs by Annexin V-FITC/propidium iodide staining-based flow cytometric analysis (reference value: 1.83%). It counts as functional.
Series [20] has as its system AGS. The series can be described thus: Cytotoxicity against human AGS cells after 72 hrs by CCK8 assay. It counts as functional, cell-based.
Series [21] has as its system MGC-803. The series can be described thus: Induction of cell cycle arrest in human MGC803 cells assessed as accumulation of cells at G2/M phase at 5 uM incubated for 24 hrs propidium iodide-A staining-based flow cytometric analysis (reference value: 31%). It counts as functional.
Series [22] relates to MGC-803. The series can be described thus: Induction of cell cycle arrest in human MGC803 cells assessed as accumulation of cells at G2/M phase at 10 uM incubated for 24 hrs propidium iodide-A staining-based flow cytometric analysis (reference value: 31%). It counts as functional.
The subject of series [23] is MGC-803. Nature of the series: Induction of cell cycle arrest in human MGC803 cells assessed as accumulation of cells at S phase at 20 uM incubated for 24 hrs propidium iodide-A staining-based flow cytometric analysis (reference value: 17%). It counts as functional.
In series [24] the test system is MGC-803. Nature of the series: Induction of cell cycle arrest in human MGC803 cells assessed as accumulation of cells at G1 phase at 5 uM incubated for 24 hrs propidium iodide-A staining-based flow cytometric analysis (reference value: 52%). It counts as functional.
Series [25] deals with MGC-803. Nature of the series: Induction of apoptosis in human MGC803 cells assessed as necrotic cells at 2 uM incubated for 48 hrs by Annexin V-FITC/propidium iodide staining-based flow cytometric analysis (reference value: 0.18%). It counts as functional.
The test system of series [26] is MGC-803. Nature of the series: Induction of apoptosis in human MGC803 cells assessed as PARP cleavage at 20 uM incubated for 24 hrs by Western blot analysis. It counts as functional, cell-based. A general note: In western blotting, separated proteins are transferred to a membrane and probed.
The test system of series [27] is BGC-823. Nature of the series: Cytotoxicity against human BGC823 cells after 72 hrs by CCK8 assay. The note with it: for IC50: BGC-823, 72 h. It counts as functional, cell-based.
In series [28] the test system is MGC-803. The series can be described thus: Induction of apoptosis in human MGC803 cells assessed as necrotic cells at 5 uM incubated for 48 hrs by Annexin V-FITC/propidium iodide staining-based flow cytometric analysis (reference value: 0.18%). It counts as functional.
For series [29], the system named is MGC-803. The series can be described thus: Induction of apoptosis in human MGC803 cells assessed as early apoptotic cells at 2 uM incubated for 48 hrs by Annexin V-FITC/propidium iodide staining-based flow cytometric analysis (reference value: 1.83%). It counts as functional.
The test system of series [30] is MGC-803. The series can be described thus: Induction of cell cycle arrest in human MGC803 cells assessed as accumulation of cells at G1 phase at 10 uM incubated for 24 hrs propidium iodide-A staining-based flow cytometric analysis (reference value: 52%). It counts as functional.
In series [31] the test system is MGC-803. Nature of the series: Induction of apoptosis in human MGC803 cells assessed as late apoptotic cells at 20 uM incubated for 48 hrs by Annexin V-FITC/propidium iodide staining-based flow cytometric analysis (reference value: 0.84%). It counts as functional.
Series [32] has as its system MGC-803. The series can be described thus: Induction of cell cycle arrest in human MGC803 cells assessed as accumulation of cells at S phase at 10 uM incubated for 24 hrs propidium iodide-A staining-based flow cytometric analysis (reference value: 17%). It counts as functional.
Series [33] has as its system MGC-803. Nature of the series: Effect on total STAT3 expression in human MGC803 cells at 20 uM incubated for 24 hrs by Western blot analysis. It counts as cell-based. Conditions: mgc-803, 24 h.
In series [34] the test system is MGC-803. The series can be described thus: Induction of cell cycle arrest in human MGC803 cells assessed as accumulation of cells at G1 phase at 2 uM incubated for 24 hrs propidium iodide-A staining-based flow cytometric analysis (reference value: 52%). It counts as functional.
Series [35] deals with MGC-803. The series can be described thus: Induction of cell cycle arrest in human MGC803 cells assessed as accumulation of cells at G2/M phase at 20 uM incubated for 24 hrs propidium iodide-A staining-based flow cytometric analysis (reference value: 31%). It counts as functional.
In series [36] the test system is MGC-803. The series can be described thus: Induction of apoptosis in human MGC803 cells assessed as viable cells at 5 uM incubated for 48 hrs by Annexin V-FITC/propidium iodide staining-based flow cytometric analysis (reference value: 97.15%). It counts as functional. Conditions: MGC-803, 48 h, read-out: Activity.

Signal transducer and activator of transcription 3 (Homo sapiens), sequence (P40763 whole entry): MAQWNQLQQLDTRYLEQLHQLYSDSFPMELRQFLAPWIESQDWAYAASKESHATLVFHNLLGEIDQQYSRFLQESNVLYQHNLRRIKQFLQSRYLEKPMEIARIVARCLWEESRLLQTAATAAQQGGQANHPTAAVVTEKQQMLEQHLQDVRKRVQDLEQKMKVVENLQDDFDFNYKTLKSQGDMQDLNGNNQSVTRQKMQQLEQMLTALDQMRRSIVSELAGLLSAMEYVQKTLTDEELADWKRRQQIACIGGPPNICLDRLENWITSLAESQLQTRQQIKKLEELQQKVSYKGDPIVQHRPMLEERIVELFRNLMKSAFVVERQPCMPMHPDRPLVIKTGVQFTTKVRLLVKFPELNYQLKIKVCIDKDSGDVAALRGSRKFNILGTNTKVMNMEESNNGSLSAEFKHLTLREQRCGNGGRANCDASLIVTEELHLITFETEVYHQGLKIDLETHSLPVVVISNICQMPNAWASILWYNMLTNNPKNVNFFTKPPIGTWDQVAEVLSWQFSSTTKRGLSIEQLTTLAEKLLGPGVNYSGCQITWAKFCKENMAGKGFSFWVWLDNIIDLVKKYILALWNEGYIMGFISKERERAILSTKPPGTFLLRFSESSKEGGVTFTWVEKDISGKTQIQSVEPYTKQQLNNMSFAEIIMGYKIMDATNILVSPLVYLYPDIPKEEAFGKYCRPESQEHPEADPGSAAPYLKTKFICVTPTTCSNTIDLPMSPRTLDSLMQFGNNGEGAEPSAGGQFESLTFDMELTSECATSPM

Regarding `Cc1c2c(c(O)c3c1[C@H](C)[C@@H](C)O3)/C(=C/c1ccccc1)C(=O)O2`, the Activity in series [1] was determined as 0.78%; in series [2], 1.55%; in series [3] it was 0.39%; in series [4], 0.34%; in series [8] it was 0.24%; in series [9], 53%. Moreover, the Activity was 0.59% in series [10]; “Dose-dependent effect” in [12]; 16% in series [13]; 1.95% in [14]; 16% in series [16]; 34% in [17]. The Activity entry in series [18] was “Dose-dependent effect”; in [19] it was 7.57%; in [20] it was “Dose-dependent effect”; in series [21], 36%; in series [22], 33%; in series [23], 23%. Further, the Activity in [24] is 48%; in series [25], 0.54%; in [27] it was “Dose-dependent effect”; in series [28] it was 0.26%; in [29] it was 0.72%; in series [30] it was 49%. Further, the Activity in series [31] was 1.51%; in [32], 18%; in series [33], “Toxic”; in series [34], 50%; in [35], 24%. Further, the IC50 in [5] is 29 µM; in [12] it was 7 µM; in [18], 3.4 µM; in series [20] it was 8.2 µM; in series [27], 6.2 µM. In addition, in series [6], the viability at 2 µM was 98.4%. In addition, in series [7], the viability at 10 µM is 97.1%. Besides, the viability at 20 µM in [11] was 89.4%. Besides, the inhibition entry in series [15] is “Active”. In addition, in series [26], the outcome was Active. Also, the viability at 5 µM in series [36] amounted to 98.7%.

For `CC(=O)O[C@H]1C(=O)[C@@]2(C)[C@H]([C@H](OC(=O)c3ccccc3)[C@]3(O)C[C@H](OC(=O)[C@H](O)[C@@H](NC(=O)c4ccccc4)c4ccccc4)C(C)=C1C3(C)C)[C@]1(OC(C)=O)CO[C@@H]1C[C@@H]2O` [PACLITAXEL], the IC50 in series [5] amounted to 0.0079 µM; in series [12], 0.0038 µM; in series [18], 0.0084 µM; in [20], 0.053 µM; in series [27], 0.0013 µM.
